From US7473688B2, “Indolobenzazepine HCV NS5B inhibitors” (Bristol-Myers Squibb Company, priority 2005, dated 2009) come the findings set out here.

For orientation: EC50 means the concentration giving half of the maximal effect. Broadly, the IC50 is the midpoint of a concentration-inhibition curve.

Like-named read-outs stand apart in the source and are kept apart here.

The test system of assay [1] is HCV replicon. In words: HCV replicon FRET assay. The class given is cell-based. To be noted: Hepatitis C virus, FRET assay, read-out: EC50*. Put shortly: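 HCV replicon cells, with or without Renilla luciferase reporter, incubated with titrated compounds at 37 °C; Alamar blue read for cytotoxicity. NS3 protease activity read from lysates with 20 μM EDANS/DABCYL FRET peptide (340/490 nm, kinetic), or by Dual-Glo luciferase. Background from highest protease-inhibitor wells; EC50 = 50% signal reduction.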
In general terms: In antiviral work, replicon cells carry a viral genome segment that copies itself.

Assay [2] has as its target T1, HCV NS5B (Hepatitis C virus genotype 1b, UniProt Q9WMX2).
T1 construct: The protein was expressed with an 18 amino acid C-terminal truncation to enhance the solubility; made in house; host or cells: E. coli BL21 (DE3), pET21a
In words: HCV NS5B RdRp enzyme assay (preincubation protocol). The class given is biochemical. Summed up:
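Preincubation format: enzyme (14 nM, genotype 1b, 18-residue C-terminal truncation) meets diluted compound first; reaction started with bead-bound biotinylated dT12 primer, polyA template 0.2 nM and 0.29 μM 3H-UTP. Run 4 h, 30 °C in Hepes pH 7.5; scintillation proximity signal; IC50 fitted from seven inhibitor levels.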

T1 sequence (Q9WMX2 2420-2992): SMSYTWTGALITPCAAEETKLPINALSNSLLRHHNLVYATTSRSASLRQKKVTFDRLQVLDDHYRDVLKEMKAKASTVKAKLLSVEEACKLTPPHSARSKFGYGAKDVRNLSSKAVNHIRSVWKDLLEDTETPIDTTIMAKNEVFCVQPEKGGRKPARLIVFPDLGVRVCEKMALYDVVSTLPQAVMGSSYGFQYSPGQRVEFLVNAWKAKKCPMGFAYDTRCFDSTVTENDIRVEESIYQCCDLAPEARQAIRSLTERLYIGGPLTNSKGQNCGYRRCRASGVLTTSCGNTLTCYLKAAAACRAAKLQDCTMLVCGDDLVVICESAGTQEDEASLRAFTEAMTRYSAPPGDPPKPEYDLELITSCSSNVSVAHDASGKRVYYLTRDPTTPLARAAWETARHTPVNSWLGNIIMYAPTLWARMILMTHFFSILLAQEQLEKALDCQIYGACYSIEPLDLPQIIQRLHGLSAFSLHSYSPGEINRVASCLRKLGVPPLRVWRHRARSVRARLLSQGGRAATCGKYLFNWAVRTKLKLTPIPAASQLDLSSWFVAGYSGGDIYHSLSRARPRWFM

With `CN(C)S(=O)(=O)NC(=O)c1ccc2c(C3CCCCC3)c3n(c2c1)CC(C(=O)N1CCC(N(C2CC2)S(=O)(=O)c2ccccc2)CC1)=Cc1ccccc1-3`, in assay [1] (Table 1), the EC50 lay in the range of 70 to 1000 nM. In addition, the IC50 in assay [2] (Table 1, read-out: IC50*) is 10 to 1000 nM.
The corresponding values for `COc1ccc2c(c1)C=C(C(=O)N(C)CC(=O)N(C)C)Cn1c-2c(C2CCCCC2)c2ccc(C(=O)NS(=O)(=O)N(C)C)cc21` [drawing 162] are 70 to 1000 nM and 10 to 1000 nM.
Turning to `CN(C)S(=O)(=O)NC(=O)c1ccc2c(C3CCCCC3)c3n(c2c1)CC(C(=O)N1CCC(N2CCCCC2=O)CC1)Cc1ccccc1-3` (stereo not shown), the EC50 in assay [1] (Table 1) was 70 to 1000 nM. The IC50 in assay [2] (Table 1, read-out: IC50*) was in the range of 10 to 1000 nM.
The corresponding values for `O=C(O)c1ccc2c(C3CCCCC3)c3n(c2c1)CC(C(=O)N1CCC(N2CC[C@H](F)C2)CC1)=Cc1ccccc1-3` are 70 to 1000 nM and 10 to 1000 nM.
The corresponding values for `COc1ccc2c(c1)C=C(C(=O)N1CCOCC1)Cn1c-2c(C2CCCCC2)c2ccc(C(=O)NS(=O)(=O)N3CCOCC3)cc21` [drawing 102] are 70 to 1000 nM and 10 to 1000 nM.
On to `O=C(O)c1ccc2c(C3CCCCC3)c3n(c2c1)CC(NC(=O)N1CCC(N2CCOCC2)CC1)Cc1ccccc1-3` (stereo not shown), for which the EC50 in assay [1] (Table 1) is 70 to 1000 nM. Also, in assay [2] (Table 1, read-out: IC50*), the IC50 fell in the range of 10 to 1000 nM.
With `CN1CCCC(CN(C)C(=O)C2Cc3ccccc3-c3c(C4CCCCC4)c4ccc(C(=O)O)cc4n3C2)C1` (stereo not shown), the EC50 in assay [1] (Table 1) lay in the range of 70 to 1000 nM. The IC50 in assay [2] (Table 1, read-out: IC50*) lay in the range of 10 to 1000 nM.
With `COc1ccc2c(c1)C=C(C(=O)N1CCC(CO)CC1)Cn1c-2c(C2CCCCC2)c2ccc(C(=O)NS(=O)(=O)N(C)C)cc21`, the 50% effective concentration (EC50) in assay [1] (Table 1b) is 30 to 1000 nM. Besides, in assay [2] (Table 1b, read-out: IC50*), the IC50 lay in the range of 20 to 1000 nM.
The corresponding values for `CCN(C)C(=O)NC1Cc2cc(OC)ccc2-c2c(C3CCCCC3)c3ccc(C(=O)NS(=O)(=O)N(C)C)cc3n2C1` (stereo not shown) are 30 to 1000 nM and 20 to 1000 nM.
`COc1ccc2c(c1)CC(NC(=O)N(C)CC(=O)N1CCOCC1)Cn1c-2c(C2CCCCC2)c2ccc(C(=O)NS(=O)(=O)N(C)C)cc21` (stereo not shown): the EC50 in assay [1] (Table 1a) lay within 30 to 1000 nM. Besides, in assay [2] (Table 1a, read-out: IC50*), the IC50 lay in the range of 10 to 1000 nM.
`COC(=O)c1ccc2c(C3CCCCC3)c3n(c2c1)CC(C(=O)N(C)CC1CCCN(C)C1)Cc1ccccc1-3` (stereo not shown): the EC50 in assay [1] (Table 1) lay within 70 to 1000 nM. Besides, the 50% inhibitory concentration (IC50) in assay [2] (Table 1, read-out: IC50*) is 10 to 1000 nM.
For `COc1ccc2c(c1)CC(C(=O)N(C)C1CCOCC1)Cn1c-2c(C2CCCCC2)c2ccc(C(=O)O)cc21` (stereo not shown), the EC50 in assay [1] (Table 1a) was 30 to 1000 nM. The IC50 in assay [2] (Table 1a, read-out: IC50*) was below 20 nM.
The corresponding values for `COc1ccc2c(c1)C=C(C(=O)N1CC(C)CC(O)C1(C)C)Cn1c-2c(C2CCCCC2)c2ccc(C(=O)NS(=O)(=O)N(C)C)cc21` (stereo not shown) are 30 to 1000 nM and below 20 nM.
`CN(C)S(=O)(=O)NC(=O)c1ccc2c(C3CCCCC3)c3n(c2c1)CC(C(=O)Nc1nccs1)=Cc1ccccc1-3`: the EC50 in assay [1] (Table 1) fell in the range of 70 to 1000 nM. Further, the IC50 in assay [2] (Table 1, read-out: IC50*) was in the range of 10 to 1000 nM.
For `CN(C)S(=O)(=O)NC(=O)c1ccc2c(C3CCCCC3)c3n(c2c1)CC(C(=O)N1CCC(Oc2ncccn2)CC1)=Cc1ccccc1-3`, in assay [1] (Table 1), the EC50 lay within 70 to 1000 nM. For the same compound, the IC50 in assay [2] (Table 1, read-out: IC50*) lay in the range of 10 to 1000 nM.
The corresponding values for `CC1CN(C(=O)OC(C)(C)C)CCN1C(=O)C1=Cc2ccccc2-c2c(C3CCCCC3)c3ccc(C(=O)NS(=O)(=O)N(C)C)cc3n2C1` (stereo not shown) are 70 to 1000 nM and 10 to 1000 nM.
For `COc1ccc2c(c1)C=C(C(=O)N1CCC(N3CCOCC3)CC1)Cn1c-2c(C2CCCCC2)c2ccc(C(=O)NS(=O)(=O)N(C)C)cc21`, in assay [1] (Table 1), the EC50 was in the range of 70 to 1000 nM. The IC50 in assay [2] (Table 1, read-out: IC50*) was 10 to 1000 nM.
The corresponding values for `O=C(O)c1ccc2c(C3CCCCC3)c3n(c2c1)C[C@@H](NC(=O)N1CCOCC1)Cc1ccccc1-3` are 70 to 1000 nM and 10 to 1000 nM.
The corresponding values for `CN(C)S(=O)(=O)NC(=O)c1ccc2c(C3CCCCC3)c3n(c2c1)CC(C(=O)N1CCC(N2CC[C@@H](F)C2)CC1)=Cc1ccccc1-3` are 70 to 1000 nM and 10 to 1000 nM.
The corresponding values for `O=C(NS(=O)(=O)N1CCOCC1)c1ccc2c(C3CCCCC3)c3n(c2c1)CC(C(=O)N1CCN(C(=O)CO)CC1)=Cc1ccccc1-3` are 70 to 1000 nM and 10 to 1000 nM.
With `CCN(CC)C(=O)C1CCCN(C(=O)C2=Cc3ccccc3-c3c(C4CCCCC4)c4ccc(C(=O)NS(=O)(=O)N(C)C)cc4n3C2)C1` (stereo not shown), the EC50 in assay [1] (Table 1) fell in the range of 70 to 1000 nM. For the same compound, in assay [2] (Table 1, read-out: IC50*), the IC50 is 10 to 1000 nM.
Turning to `COc1ccc2c(c1)CC(C(=O)NCc1cn(C)cn1)Cn1c-2c(C2CCCCC2)c2ccc(C(=O)NS(=O)(=O)N(C)C)cc21` (stereo not shown), the EC50 in assay [1] (Table 1a) was in the range of 30 to 1000 nM. Moreover, in assay [2] (Table 1a, read-out: IC50*), the IC50 was in the range of 10 to 1000 nM.
For the compound `COCCNC(=O)CN(C)C(=O)NC1Cc2cc(OC)ccc2-c2c(C3CCCCC3)c3ccc(C(=O)NS(=O)(=O)N(C)C)cc3n2C1` (stereo not shown), the EC50 in assay [1] (Table 1b) lay within 30 to 1000 nM. In addition, in assay [2] (Table 1b, read-out: IC50*), the IC50 fell in the range of 20 to 1000 nM.
